Assay results reported in ChEMBL document CHEMBL1130525, “Robustaflavone, a naturally occurring biflavanoid, is a potent non-nucleoside inhibitor of hepatitis B virus replication in vitro” (Bioorg Med Chem Lett, 1997).

Key:
HepG2 [1] = experiment: Effective concentration necessary to decrease extracellular Hepatitis B virus DNA levels by 90% in human hepatoblastoma cell line (2.2.15 cells) in vitro; assay type: functional
HepG2 [2] = experiment: Cytotoxicity towards human hepatoblastoma cell line (2.2.15 cells) measured by inhibition of neutral red dye uptake in vitro; assay type: functional, cell-based
HepG2 [3] = experiment: Effective concentration necessary to decrease extracellular Hepatitis B virus DNA levels by 50% in human hepatoblastoma cell line (2.2.15 cells) in vitro; assay type: functional, cell-based
[4] = In vitro selectivity index measured for IC50 to that of EC90 was determined in human hepatoblastoma cell line (2.2.15 cells); assay type: functional
HepG2 [5] = experiment: Relative level of HBV viral DNA (Intracellular) following treatment of human hepatoblastoma cell line (2.2.15 cells) with the compound; assay type: functional
HepG2 [6] = experiment: Relative level of HBV viral antigen (HBsAg) following treatment of human hepatoblastoma cell line (2.2.15 cells) with the compound; assay type: functional
HepG2 [7] = experiment: Relative level of HBV viral antigen (HBcAg) following treatment of human hepatoblastoma cell line (2.2.15 cells) with the compound; assay type: functional
HepG2 [8] = experiment: Relative level of HBV viral DNA (Extracellular) following treatment of human hepatoblastoma cell line (2.2.15 cells) with the compound; assay type: functional
HepG2 [9] = experiment: Relative level of HBV viral mRNA (2.1 kb mRNA) following treatment of human hepatoblastoma cell line (2.2.15 cells) with the compound; assay type: functional
HepG2 [10] = experiment: Relative level of HBV viral mRNA (3.6 kb mRNA) following treatment of human hepatoblastoma cell line (2.2.15 cells) with the compound; assay type: functional
HepG2 [11] = experiment: Relative level of HBV viral antigen (HBeAg) following treatment of human hepatoblastoma cell line (2.2.15 cells) with the compound; assay type: functional

| EC90 (HepG2 [1]) [µM] | EC50 (HepG2 [3]) [µM] | Compound | IC50 (HepG2 [2]) [µM] | Ratio [4] | Relative level (HepG2 [5]) | Relative level (HepG2 [6]) | Relative level (HepG2 [7]) | Relative level (HepG2 [8]) | Relative level (HepG2 [9]) | Relative level (HepG2 [10]) | Relative level (HepG2 [11]) |
| --- | --- | --- | --- | --- | --- | --- | --- | --- | --- | --- | --- |
| 0.92 | 0.19 | Nc1nc(O)c2ncn(CCC(CO)CO)c2n1 [PENCICLOVIR] | 433 | 471 | – | – | – | – | – | – | – |
| 8.4 | 1.4 | Nc1ccn([C@H]2CC[C@@H](CO)O2)c(=O)n1 [ZALCITABINE] | 252 | 30 | 6 | 90 | 91 | 1 | 87 | 94 | 88 |
| 0.16 | 0.038 | Nc1ccn([C@@H]2CS[C@H](CO)O2)c(=O)n1 [LAMIVUDINE] | 1790 | 11200 | – | – | – | – | – | – | – |
| 2.2 | 0.25 | O=c1cc(-c2ccc(O)c(-c3c(O)cc4oc(-c5ccc(O)cc5)cc(=O)c4c3O)c2)oc2cc(O)cc(O)c12 [ROBUSTAFLAVONE] | 337 | 153 | 5 | 97 | 138 | 1 | 106 | 93 | 86 |
